Earlier results on one substance are cited in article PMC5911155 (Nature chemistry, 2018).

The subject of this data set is Aβ42 monomers. The conditions noted are these: ref [7], [42].

Regarding “Aβ40: fibrils constructed from other proteins and peptides, including Aβ40”, the “ability of fibrils to catalyse nucleation of Aβ42 monomers” value is on record as “not able to efficiently catalyse nucleation of Aβ42 monomers”.
